{
  "source": "patent US11497776B2",
  "about": "“Combination therapy for a stable and long term engraftment” (Yeda Research and Development Co. Ltd., priority 2011, dated 2022)",
  "key": {"[1]": {"tested_on": "allogeneic recipients (C3H/Hen) transplanted with Balb/c-Nude BM cells", "protocol": "(§1) Low (5×10^6) and high dose (25×10^6) Balb/c-Nude BM cells (providing a source of BM depleted of T cells) were transplanted into allogeneic recipients (C3H/Hen) on day 0 following in-vivo T cell debulking (TCD) with anti-CD4 (clone GK1.5) and anti-CD8 (clone 53.6.72) antibodies (300 μg each; Bio X Cell, NH, USA) delivered on day −6, and exposure to 2.0 Gy total body irradiation (TBI) on day −1. High dose Cyclophosphamide (CY, 100 mg/kg, Baxter Oncology, Germany) was administered on days +3 and +4 post transplant and donor type chimerism was evaluated 35 and 95 days post transplant using fluorescein anti-host and donor H-2 antibodies (e.g. FlTC labeled anti-H-2D^d antibody specific for donor type cells and PE labeled anti-H-2K^k antibody specific for host type cells).\nRecipient mice (C3H/Hen) were treated with a conditioning protocol prior to transplantation of a T cell depleted bone marrow transplant. Specifically, mice were in-vivo treated with T cell debulking (TCD) using anti-CD4 and anti-CD8 antibodies delivered on day −6 and by exposure to 2.0 Gy total body irradiation (TBI) on day −1. Next, low (5×10^6) or high dose (25×10^6) Balb/c-Nude BM cells (providing a source of BM depleted of T cells, as Nude mice have miniscule numbers of mature T cells) were transplanted into allogeneic recipients (C3H/Hen) on day 0. High dose cyclophosphamide (CY, 100 mg/kg) was administered on days +3 and +4 post transplant. Evaluation of bone marrow cell engraftment was evaluated by donor type chimerism at 35 and 95 days post transplant.\nas §1, with “High” for “Low (5×10^6) and high”, “different doses of irradiation ranging from 1 to 3.5” for “2.0”, “TBI” for “total body irradiation (TBI)”, “30” for “35 and 95”\nHigh dose Cyclophosphamide (CY) was administered on days +3 and +4 post transplant and donor type chimerism was evaluated at 30 days post transplant.\nas §1, with “High dose” for “Low (5×10^6) and high dose”, “−1. Different doses of” for “−1. High dose”, “mg/kg, 125 mg/kg or 150 mg/kg,” for “mg/kg,”, “Germany) were” for “Germany) was”, “evaluated 30” for “evaluated 35 and 95”"}, "[2]": {"tested_on": "C3H/Hen recipients of T cell depleted BM and high dose CY", "protocol": "Donor (Balb/c) and 3rd party (C57BL/6) skin grafts were transplanted to the mixed chimeric recipients as described above [i.e. to those mice which were previously transplanted with mega dose (25×10^6) T cell depleted BM and were treated with high dose CY] and to the recipient mice that were inoculated with a regular (5×10^6) T cell depleted BM cell dose and were treated with high dose CY.\nTolerance induction was measured by transplantation of donor (Balb/c) and 3rd party (C57BL/6) skin grafts to the mixed chimeric recipients that were transplanted with mega dose (25×10^6) T cell depleted BM and were treated with high dose CY (as described above), in comparison to the recipients that were inoculated with a regular (5×10^6) T cell depleted BM cell dose (as described above)."}, "[3]": {"settings": "1.0 Gy TBI, 25×10^6 BM, CY 100 mg/kg days +3 and +4, 30 days post transplant"}, "[4]": {"settings": "2 Gy TBI, 25×10^6 BM, CY 100 mg/kg days +3 and +4, 30 days post transplant"}, "[5]": {"settings": "2.5, 3 or 3.5 Gy TBI, 25×10^6 BM, CY 100 mg/kg days +3 and +4, 30 days post transplant"}},
  "note": "Like-named read-outs stand apart in the source and are kept apart here.",
  "data": [
    {"smiles": "O.O=P1(N(CCCl)CCCl)NCCCO1", "note": "(stereo not drawn) [CY, 2-[bis(2-chloroethyl)amino]tetrahydro-2H-1,3,2-oxazaphosphorine 2-oxide monohydrate]", "values": [
      {"measurement": "effect of increasing CY dose on chimerism", "setting": "[1]; 125 mg/kg or 150 mg/kg versus 100 mg/kg, 25×10^6 BM, 2 Gy TBI, 30 days post transplant", "value": "did not provide a significant enhancement of chimerism"},
      {"measurement": "donor type chimerism range", "setting": "[1]; [3]", "value": "14.5-58%"},
      {"measurement": "percentage of chimeric mice", "setting": "[1]; [3]", "value": 83, "unit": "%"},
      {"measurement": "donor type chimerism range", "setting": "[1]; [4]", "value": "56-85%"},
      {"measurement": "percentage of mice exhibiting donor type chimerism", "setting": "[1]; [4]", "value": 87, "unit": "%"},
      {"measurement": "chimeric recipient mice", "setting": "[1]; [5]", "value": "6/6"},
      {"measurement": "donor type chimerism range", "setting": "[1]; [5]", "value": "58-83%"},
      {"measurement": "mixed chimerism at long term follow-up", "setting": "[1]; 5×10^6 T cell depleted BM + CY, 180 and 225 days post transplant", "value": "did not exhibit mixed chimerism"},
      {"measurement": "effect of CD8+ cell depletion of the BM preparation on level of chimerism", "setting": "[1]; 25×10^6 CD8 depleted vs non-depleted Balb/c-Nude BM, CY 100 mg/kg days +3 and +4, 2.0 Gy TBI, 30 days post transplant", "value": "did not have any adverse impact"},
      {"measurement": "chimerism at long term follow-up", "setting": "[1]; 25×10^6 T cell depleted BM + high dose CY, 180 and 225 days post transplant", "value": "stable and durable"},
      {"measurement": "mice in which durable mix chimerism was achieved", "setting": "[1]; 25×10^6 T cell depleted BM, CY 100 mg/kg days +3 and +4, TCD day −6, 2.0 Gy TBI day −1, day 35 and day 95", "value": "4 out of 7"},
      {"measurement": "average donor type chimerism", "setting": "[1]; CY 100 mg/kg days +3 and +4, 25×10^6 BM, 2 Gy TBI, 30 days post transplant", "value": "57.5±25.8"},
      {"measurement": "average donor type chimerism", "setting": "[1]; CY 125 mg/kg days +3 and +4, 25×10^6 BM, 2 Gy TBI, 30 days post transplant", "value": "66.5±20.6"},
      {"measurement": "average donor type chimerism", "setting": "[1]; CY 150 mg/kg days +3 and +4, 25×10^6 BM, 2 Gy TBI, 30 days post transplant", "value": "67.4±27.4"},
      {"measurement": "mice expressing donor type chimerism", "setting": "[1]; control mice: TCD, 2 Gy TBI and optionally CY, no BM, day 35 and day 95", "value": "none"},
      {"measurement": "mice expressing donor type chimerism", "setting": "[1]; regular dose 5×10^6 T cell depleted BM, in the presence or absence of cyclophosphamide, TCD, 2 Gy TBI, day 35 and day 95", "value": "none"},
      {"measurement": "skin graft outcome", "setting": "[2]; 5×10^6 T cell depleted BM cells and CY", "value": "rejected both the donor and 3rd party skin grafts"},
      {"measurement": "chimeric mice that accepted the donor graft and rejected the 3rd party skin grafts", "setting": "[2]; 25×10^6 T cell depleted BM + high dose CY days +3 and +4", "value": "three out of 4"}
    ]}
  ]
}
